Test [1] concerns the target T1, human cloned CHRM2 receptor (M2_CHO cells) (Homo sapiens, UniProt P08172).
T1 construct: expressed in transfected cells; host or cells: CHO-K1
T1 sequence (P08172 1-466): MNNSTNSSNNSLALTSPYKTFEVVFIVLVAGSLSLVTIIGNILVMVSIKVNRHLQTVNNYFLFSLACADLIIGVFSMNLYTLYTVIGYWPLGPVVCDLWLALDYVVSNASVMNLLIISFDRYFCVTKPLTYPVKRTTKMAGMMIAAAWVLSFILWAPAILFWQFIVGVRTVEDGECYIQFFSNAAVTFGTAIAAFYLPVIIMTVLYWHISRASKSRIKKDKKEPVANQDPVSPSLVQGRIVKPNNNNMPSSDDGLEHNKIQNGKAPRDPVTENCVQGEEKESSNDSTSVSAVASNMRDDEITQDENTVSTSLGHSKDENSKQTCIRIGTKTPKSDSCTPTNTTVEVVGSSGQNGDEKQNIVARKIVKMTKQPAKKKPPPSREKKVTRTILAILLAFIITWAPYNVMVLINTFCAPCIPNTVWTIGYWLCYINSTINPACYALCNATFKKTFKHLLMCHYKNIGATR
The test can be described thus: CHRM2 Ca++ Flux Assay (agonist mode, FDSS 7000EX). Format: cell-based. To be noted: for Emax: Percent Activity measured to EC100 of Carbachol, read-out: M2 FDSS PA; for EC50: agonist mode, geometric mean if tested more than once, read-out: M2 FDSS EC50. Put shortly: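 Agonist-mode Ca++ flux in CHO-K1 cells stably expressing human CHRM2, dye-loaded, then held 60 min at room temperature in buffer with 20 μM ATP before compound addition; traces read over 3 minutes. Four-parameter fit of triplicate wells; percent activity relative to Carbachol EC100.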

Test [2] concerns the target T2, Cloned human M1 receptor (CHRM1) stably expressed in HEK293 cells (Homo sapiens, UniProt P11229).
T2 construct: expressed in transfected cells; host or cells: HEK293
T2 sequence (P11229 1-460): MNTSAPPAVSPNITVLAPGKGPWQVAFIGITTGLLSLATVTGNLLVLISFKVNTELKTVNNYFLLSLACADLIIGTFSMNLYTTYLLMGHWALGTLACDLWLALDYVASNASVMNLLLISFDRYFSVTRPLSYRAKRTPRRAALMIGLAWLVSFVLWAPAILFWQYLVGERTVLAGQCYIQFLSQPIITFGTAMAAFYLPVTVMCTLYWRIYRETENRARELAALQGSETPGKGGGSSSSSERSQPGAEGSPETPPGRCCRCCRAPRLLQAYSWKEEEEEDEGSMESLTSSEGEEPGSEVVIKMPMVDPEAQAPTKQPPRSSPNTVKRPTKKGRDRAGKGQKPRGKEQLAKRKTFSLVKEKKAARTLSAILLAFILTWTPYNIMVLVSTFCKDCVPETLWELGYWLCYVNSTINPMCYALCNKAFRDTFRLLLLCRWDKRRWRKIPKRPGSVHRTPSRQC
Briefly: CHRM1 Ca++ Flux Assay (agonist mode, FDSS 7000EX). Format: cell-based. The following applies: for Emax: HEK293, Percent Activity, read-out: M1 FDSS PA; for EC50: geometric mean if tested more than once. Put shortly:
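Compounds tested as agonists at 11 concentrations in triplicate, with calcium traces captured over 3 minutes. Cells were HEK293 with stable human CHRM1 expression, plated overnight at 25K/well and loaded with calcium dye. Responses normalized to carbachol EC100 and fitted by four-parameter nonlinear regression.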

Emax and EC50 data for 10 compounds are collected here from patent US12122761B2, “2-azaspiro[3.4]octane derivatives as M4 agonists” (NOVARTIS AG, priority 2019, dated 2024).

Molecules are shown by their SMILES. Bounds are passed on as bounds.

`O=C(C1COC1)N1CC2(CC[C@@H](N3CCC(c4ccccc4OC4CCC4)CC3)C2)C1` [Example 7H, (R)-(6-(4-(2-cyclobutoxyphenyl)piperidin-1-yl)-2-azaspiro[3.4]octan-2-yl)(oxetan-3-yl)methanone]: the Emax in test [1] was found to be 0%; in test [2] it was 71%. Further, the EC50 – broadly, the concentration giving half of the maximal effect – in test [2] was 0.009 µM.

For the compound `c1ccc(C2CCN([C@@H]3CCC4(C3)CN(c3nncs3)C4)CC2)c(OC2COC2)c1` [Example 3A, (R)-2-(6-(4-(2-(oxetan-3-yloxy)phenyl)piperidin-1-yl)-2-azaspiro[3.4]octan-2-yl)-1,3,4-thiadiazole], in test [1], the Emax amounted to 21% and the EC50 was found to be 0.076 µM. In test [2], the Emax is 92% and the EC50 was 0.008 µM.

In the case of `COc1ccc(F)cc1C1CCN([C@@H]2CCC3(C2)CN(c2ccnnc2)C3)CC1` [Example 5V, (R)-6-(4-(5-fluoro-2-methoxyphenyl)piperidin-1-yl)-2-(pyridazin-4-yl)-2-azaspiro[3.4]octane], the Emax in test [1] was found to be 0%. In test [2], the Emax came to 60% and the EC50 is 0.215 µM.

`c1ccc(C2CCN([C@@H]3CCC4(C3)CN(c3cncnc3)C4)CC2)c(OC2CC3(COC3)C2)c1` [Example 1O, (R)-6-(4-(2-((2-oxaspiro[3.3]heptan-6-yl)oxy)phenyl)piperidin-1-yl)-2-(pyrimidin-5-yl)-2-azaspiro[3.4]octane]: in test [1], the Emax worked out at 0%. Moreover, in test [2], the Emax came out at 0% and the EC50 is > 25 µM.

Consider `COc1ccccc1C1CCN([C@@H]2CCC3(C2)CN(c2cnc(C)cn2)C3)CC1` [Example 5DD, (R)-6-(4-(2-methoxyphenyl)piperidin-1-yl)-2-(5-methylpyrazin-2-yl)-2-azaspiro[3.4]octane], for which the Emax in test [1] and in test [2] was 0% each time. Further, the EC50 was > 25 µM in test [1] and 1.26 µM in test [2].

Turning to `CC1(COc2ccccc2C2CCN([C@@H]3CCC4(C3)CN(c3nnco3)C4)CC2)CCOCC1` [Example 2E, (R)-2-(6-(4-(2-((4-methyltetrahydro-2H-pyran-4-yl)methoxy)phenyl)piperidin-1-yl)-2-azaspiro[3.4]octan-2-yl)-1,3,4-oxadiazole], the figures for the Emax in test [1] and in test [2] were 10% and 78%, respectively. The EC50 came to 0.09 µM in test [1] and 0.381 µM in test [2].

Consider `c1ccc(C2CCN([C@@H]3CCC4(C3)CN(c3nncs3)C4)CC2)c(OCC2COC2)c1` [Example 1G, (R)-2-(6-(4-(2-(oxetan-3-ylmethoxy)phenyl)piperidin-1-yl)-2-azaspiro[3.4]octan-2-yl)-1,3,4-thiadiazole], for which, in test [1], the Emax worked out at 38% and the EC50 was 0.075 µM. Besides, in test [2], the Emax was 80% and the midpoint of the response, the EC50, lay at 0.072 µM.

With `CC(C)(O)CCOc1ccccc1C1CCN([C@@H]2CCC3(C2)CN(c2nncs2)C3)CC1` [Example 3H, (R)-4-(2-(1-(2-(1,3,4-thiadiazol-2-yl)-2-azaspiro[3.4]octan-6-yl)piperidin-4-yl)phenoxy)-2-methylbutan-2-ol], the Emax in test [1] was found to be 0%. Also, in test [2], the Emax stood at 84% and the EC50 was found to be 0.02 µM.

As to `c1ccc(C2CCN([C@@H]3CCC4(C3)CN(c3cncnc3)C4)CC2)c(OC2COC2)c1` [Example 1K, (R)-6-(4-(2-(oxetan-3-yloxy)phenyl)piperidin-1-yl)-2-(pyrimidin-5-yl)-2-azaspiro[3.4]octane], in test [1], the Emax came out at 19% and the EC50 was 0.029 µM. For the same compound, in test [2], the Emax was 85% and the EC50 came to 0.024 µM.

Take `N#CCCOc1ccccc1C1CCN([C@@H]2CCC3(C2)CN(C(=O)C2COC2)C3)CC1` [Example 7D, (R)-3-(2-(1-(2-(oxetane-3-carbonyl)-2-azaspiro[3.4]octan-6-yl)piperidin-4-yl)phenoxy)propanenitrile]: in test [1], the Emax was 31% and the EC50 is 0.092 µM. For the same compound, in test [2], the Emax was 114% and the midpoint of the response, the EC50, lay at 0.003 µM.
